{
  "source": "patent US11078202B2",
  "about": "“β-lactamase inhibitor and use thereof” (priority 2018, dated 2021)",
  "format_in_all_cases": "cell-based",
  "key": {"[1]": {"test_system": "Klebsiella pneumoniae XNWB 0002 (KPC-2, SHV-5)", "assay": "microbe, parasite or virus in culture", "method": "(§1) The bacterial strains used for the minimum inhibitory concentration (MIC) test were frozen in a −80° C. ULT freezer and thawed 2 days before use. A small amount of frozen bacterial strains were scraped using a sterile inoculating loop, streaked onto a TSA solid culture dish for inoculation, and then cultured for 20-24 h at 35±2° C. in a normal atmospheric environment.\n(§2) 5-10 colonies with similar morphology were picked from the culture dish using a sterile inoculating loop and then re-streaked onto a suitable solid culture dish. Then the dish was placed into a normal incubator for culture for 20-24 h at 35±2° C.\n(§3) 5-10 single bacterial colonies were picked from the solid culture dish, resuspended in 500 μL of 0.9% NaCl, and adjusted to an OD600 of 0.1-0.15 with a spectrophotometer.\n(§4) The bacteria were then diluted 300-fold with 1.1×CAMHB.\n(§5) After addition, the 6 assay plates were covered by sterile covers. The mixtures in the assay plates were centrifuged by a centrifuge at 1000 rpm for 30 s, and mixed uniformly by oscillating with a microplate oscillator at 800 rpm for 1 min, and then cultured in a common incubator for 16-20 h at 35±2° C.\n(§6) The minimum inhibitory concentration of each compound was recorded by reference to guidelines from the Clinical and Laboratory Standards Institute.\n(§7) The minimum inhibitory concentrations of the compounds of the present invention and antibiotics (imipenem, ceftazidime, and ampicillin) against 11 strains of bacteria were tested in this study by reference to the medium microdilution method as indicated by the Clinical and Laboratory Standards Institute. The effect of the test compounds in combination with imipenem, ceftazidime, and ampicillin was also tested. Compounds were diluted two-fold in 96-well plates from the highest detection concentration of 64 μg/mL. The test compounds were tested in combination with a fixed concentration of imipenem (4 μg/mL), ceftazidime (8 μg/mL), and ampicillin (8 μg/mL). The bacterial inocula in the assay plates were resuscitated from TSA and diluted in CAMHB, while growth controls (GC wells) and sterile controls (SC wells) were set up in the assay plates."}, "[2]": {"test_system": "Klebsiella pneumoniae XNWB 0004 (KPC-2, SHV-12)", "assay": "microbe, parasite or virus in culture", "method": "as §1, §2, §3, §4, §5, §6, §7"}, "[3]": {"test_system": "Acinetobacter baumannii XNWB 0007 (AmpC)", "assay": "MIC of antibiotics alone, broth microdilution", "conditions": "antibiotic alone, A. baumannii XNWB 0007, β-lactamase AmpC", "method": "as §1, §2, §3, §4, §5, §6, §7"}, "[4]": {"test_system": "Enterobacter aerogenes XNWB 0011 (TEM-10)", "assay": "MIC of antibiotics alone, broth microdilution", "conditions": "Klebsiella aerogenes; antibiotic alone; E. aerogenes XNWB 0011, β-lactamase TEM-10", "method": "as §1, §2, §3, §4, §5, §6, §7"}, "[5]": {"test_system": "Escherichia coli XNWB 0009 (SHV-5A)", "assay": "MIC of antibiotics alone, broth microdilution", "method": "as §1, §2, §3, §4, §5, §6, §7"}, "[6]": {"test_system": "Escherichia coli XNWB 0010 (SHV-2)", "assay": "MIC of antibiotics alone, broth microdilution", "conditions": "antibiotic alone, E. coli XNWB 0010, β-lactamase SHV-2", "method": "as §1, §2, §3, §4, §5, §6, §7"}, "[7]": {"test_system": "Klebsiella pneumoniae XNWB 0001 (KPC-1/2)", "assay": "MIC of antibiotics alone, broth microdilution", "conditions": "antibiotic alone, K. pneumoniae XNWB 0001, β-lactamase KPC-1/2", "method": "as §1, §2, §3, §4, §5, §6, §7"}, "[8]": {"test_system": "Klebsiella pneumoniae XNWB 0003 (KPC-11, SHV-12)", "assay": "MIC of antibiotics alone, broth microdilution", "conditions": "antibiotic alone, K. pneumoniae XNWB 0003, β-lactamase KPC-11, SHV-12, read-out: MIC", "method": "as §1, §2, §3, §4, §5, §6, §7"}, "[9]": {"test_system": "Klebsiella pneumoniae XNWB 0005 (KPC-3)", "assay": "MIC of antibiotics alone, broth microdilution", "conditions": "antibiotic alone, K. pneumoniae XNWB 0005, β-lactamase KPC-3, read-out: MIC", "method": "as §1, §2, §3, §4, §5, §6, §7"}, "[10]": {"test_system": "Klebsiella pneumoniae XNWB 0006 (CTX-M-15, SHV)", "assay": "MIC of antibiotics alone, broth microdilution", "method": "as §1, §2, §3, §4, §5, §6, §7"}, "[11]": {"test_system": "Pseudomonas aeruginosa XNWB 0008 (AmpC)", "assay": "MIC of antibiotics alone, broth microdilution", "conditions": "antibiotic alone, P. aeruginosa XNWB 0008, β-lactamase AmpC, read-out: MIC", "method": "as §1, §2, §3, §4, §5, §6, §7"}},
  "data": [
    {"smiles": "C[C@@H](O)[C@H]1C(=O)N2C(C(=O)O)=C(SCCN=CN)C[C@H]12", "note": "[Imipenem]", "values": [
      {"measurement": "MIC", "setting": "[1]", "result": "32 to 64", "unit": "µg/mL"},
      {"measurement": "MIC", "setting": "[2]", "result": 64, "unit": "µg/mL"},
      {"measurement": "MIC", "setting": "[3]", "result": "32 to 64", "unit": "µg/mL"},
      {"measurement": "MIC", "setting": "[4]", "result": "0.5 to 1", "unit": "µg/mL"},
      {"measurement": "MIC", "setting": "[5]", "result": "0.125 to 0.5", "unit": "µg/mL"},
      {"measurement": "MIC", "setting": "[6]", "result": "≤ 0.125", "unit": "µg/mL"},
      {"measurement": "MIC", "setting": "[7]", "result": "64 to 128", "unit": "µg/mL"},
      {"measurement": "MIC", "setting": "[8]", "result": "8 to 16", "unit": "µg/mL"},
      {"measurement": "MIC", "setting": "[9]", "result": "32 to 64", "unit": "µg/mL"},
      {"measurement": "MIC", "setting": "[10]", "result": "0.125 to 0.5", "unit": "µg/mL"},
      {"measurement": "MIC", "setting": "[11]", "result": "16 to 32", "unit": "µg/mL"}
    ]}
  ]
}
